Results taken from patent US20230085307A1, “PYRIDAZINONE COMPOUND AND HERBICIDE” (NISSAN CHEMICAL CORPORATION, priority 2019, published 2023).

How the values were obtained:
barnyard grass [1] = assay: Test Example 3: herbicidal effect by foliage application, Wagner pot (Table 18, symbol H); format: in vivo, barnyard grass (Echinochloa crus-galli); details: 320 g/ha
Method in brief: (§1)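 Plants were sown in alluvial soil held under 0.1–0.5 cm standing water and grown 14 days in a greenhouse at 25–30 °C. An emulsifiable formulation, water-diluted to the set dose, was then sprayed onto the foliage, and effects were scored three weeks later using previously defined criteria.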

Chinese sprangletop = assay: Test Example 3: herbicidal effect by foliage application, Wagner pot (Table 18, symbol D); format: in vivo, chinese sprangletop (Leptochloa chinensis); details: 320 g/ha
Method in brief: as §1

rice flat sedge = assay: Test Example 3: herbicidal effect by foliage application, Wagner pot (Table 18, symbol E); format: in vivo, rice flat sedge (Cyperus iria); details: 320 g/ha
Method in brief: as §1

southern crabgrass = assay: Test Example 5: herbicidal effect by foliage application, plastic box (Table 20, symbol F); format: in vivo, southern crabgrass (Digitaria ciliaris); details: foliage application after 14-day growth, evaluated three weeks after application; for herbicidal effect on F: southern crabgrass (evaluation grade 0-5): 320 g/ha; for Herbicidal effect by foliage application, F: southern crabgrass: amount of applied herbicide 320 g/ha
Method in brief: (§2)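 Plants were sown into sterilized diluvial soil under about 1.5 cm cover and kept in a greenhouse at 25° C. to 30° C. Fourteen days on, foliage received an even spray of the diluted emulsion. Herbicidal or crop effect was judged three weeks afterwards.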

green foxtail = assay: Test Example 5: herbicidal effect by foliage application, plastic box (Table 20, symbol G); format: in vivo, green foxtail (Setaria viridis); details: foliage application after 14-day growth, evaluated three weeks after application; for herbicidal effect on G: green foxtail (evaluation grade 0-5): 320 g/ha; for Herbicidal effect by foliage application, G: green foxtail: amount of applied herbicide 320 g/ha
Method in brief: as §2

barnyard grass [2] = assay: Test Example 5: herbicidal effect by foliage application, plastic box (Table 20, symbol H); format: in vivo, barnyard grass (Echinochloa crus-galli); details: foliage application after 14-day growth, evaluated three weeks after application; for herbicidal effect on H: barnyard grass (evaluation grade 0-5): 320 g/ha; for Herbicidal effect by foliage application, H: barnyard grass: amount of applied herbicide 320 g/ha
Method in brief: as §2

wild oat = assay: Test Example 5: herbicidal effect by foliage application, plastic box (Table 20, symbol I); format: in vivo, wild oat (Avena fatua); details: foliage application after 14-day growth, evaluated three weeks after application; for herbicidal effect on I: wild oat (evaluation grade 0-5): 320 g/ha; for Herbicidal effect by foliage application, I: wild oat: amount of applied herbicide 320 g/ha
Method in brief: as §2

blackgrass = assay: Test Example 5: herbicidal effect by foliage application, plastic box (Table 20, symbol J); format: in vivo, blackgrass (Alopecurus myosuroides); details: foliage application after 14-day growth, evaluated three weeks after application; for herbicidal effect on J: blackgrass (evaluation grade 0-5): 320 g/ha; for Herbicidal effect by foliage application, J: blackgrass: amount of applied herbicide 320 g/ha
Method in brief: as §2

Italian ryegrass = assay: Test Example 5: herbicidal effect by foliage application, plastic box (Table 20, symbol K); format: in vivo, Italian ryegrass (Lolium multiflorum); details: foliage application after 14-day growth, evaluated three weeks after application; for herbicidal effect on K: Italian ryegrass (evaluation grade 0-5): 320 g/ha; for Herbicidal effect by foliage application, K: Italian ryegrass: amount of applied herbicide 320 g/ha
Method in brief: as §2

windgrass = assay: Test Example 5: herbicidal effect by foliage application, plastic box (Table 20, symbol L); format: in vivo, windgrass (Apera spica-venti); details: foliage application after 14-day growth, evaluated three weeks after application; for herbicidal effect on L: windgrass (evaluation grade 0-5): 320 g/ha; for Herbicidal effect by foliage application, L: windgrass: amount of applied herbicide 320 g/ha
Method in brief: as §2

velvetleaf = assay: Test Example 5: herbicidal effect by foliage application, plastic box (Table 20, symbol M); format: in vivo, velvetleaf (Abutilon theophrasti); details: foliage application after 14-day growth, evaluated three weeks after application; for herbicidal effect on M: velvetleaf (evaluation grade 0-5): 320 g/ha; for Herbicidal effect by foliage application, M: velvetleaf: amount of applied herbicide 320 g/ha
Method in brief: as §2

redroot pigweed = assay: Test Example 5: herbicidal effect by foliage application, plastic box (Table 20, symbol N); format: in vivo, redroot pigweed (Amaranthus retroflexus); details: foliage application after 14-day growth, evaluated three weeks after application; for herbicidal effect on N: redroot pigweed (evaluation grade 0-5): 320 g/ha; for Herbicidal effect by foliage application, N: redroot pigweed: amount of applied herbicide 320 g/ha
Method in brief: as §2

lambsquarters = assay: Test Example 5: herbicidal effect by foliage application, plastic box (Table 20, symbol O); format: in vivo, lambsquarters (Chenopodium album); details: foliage application after 14-day growth, evaluated three weeks after application; for herbicidal effect on O: lambsquarters (evaluation grade 0-5): 320 g/ha; for Herbicidal effect by foliage application, O: lambsquarters: amount of applied herbicide 320 g/ha
Method in brief: as §2

chickweed = assay: Test Example 5: herbicidal effect by foliage application, plastic box (Table 20, symbol P); format: in vivo, common chickweed (Stellaria media); details: foliage application after 14-day growth, evaluated three weeks after application; for herbicidal effect on P: chickweed (evaluation grade 0-5): 320 g/ha; for Herbicidal effect by foliage application, P: chickweed: amount of applied herbicide 320 g/ha
Method in brief: as §2

persian speedwell = assay: Test Example 5: herbicidal effect by foliage application, plastic box (Table 20, symbol R); format: in vivo, Persian speedwell (Veronica persica); details: foliage application after 14-day growth, evaluated three weeks after application; for herbicidal effect on R: persian speedwell (evaluation grade 0-5): 320 g/ha; for Herbicidal effect by foliage application, R: persian speedwell: amount of applied herbicide 320 g/ha
Method in brief: as §2

Row | SMILES | herbicidal effect on barnyard grass (H) (barnyard grass [1]) | herbicidal effect on Chinese sprangletop (D) (Chinese sprangletop) | herbicidal effect on rice flat sedge (E) (rice flat sedge) | herbicidal effect on F: southern crabgrass (evaluation grade 0-5) (southern crabgrass) | herbicidal effect on G: green foxtail (evaluation grade 0-5) (green foxtail) | herbicidal effect on H: barnyard grass (evaluation grade 0-5) (barnyard grass [2]) | herbicidal effect on I: wild oat (evaluation grade 0-5) (wild oat) | herbicidal effect on J: blackgrass (evaluation grade 0-5) (blackgrass) | herbicidal effect on K: Italian ryegrass (evaluation grade 0-5) (Italian ryegrass) | herbicidal effect on L: windgrass (evaluation grade 0-5) (windgrass) | herbicidal effect on M: velvetleaf (evaluation grade 0-5) (velvetleaf) | herbicidal effect on N: redroot pigweed (evaluation grade 0-5) (redroot pigweed) | herbicidal effect on O: lambsquarters (evaluation grade 0-5) (lambsquarters) | herbicidal effect on P: chickweed (evaluation grade 0-5) (chickweed) | herbicidal effect on R: persian speedwell (evaluation grade 0-5) (persian speedwell) | Herbicidal effect by foliage application, F: southern crabgrass (southern crabgrass) | Herbicidal effect by foliage application, G: green foxtail (green foxtail) | Herbicidal effect by foliage application, H: barnyard grass (barnyard grass [2]) | Herbicidal effect by foliage application, I: wild oat (wild oat) | Herbicidal effect by foliage application, J: blackgrass (blackgrass) | further results
1 | Cc1nn(C)c(=O)c(-c2c(-c3ccc(OC(F)F)cc3)sc3cc(Cl)ccc23)c1O [3-147] | 4 (Herbicidal rate of 70% or more and less than 90%) | 2 (Herbicidal rate of 20% or more and less than 40%) | 3 (Herbicidal rate of 40% or more and less than 70%) | 3 (Herbicidal rate of 40% or more and less than 70%) | 5 (Herbicidal rate of 90% or more (almost completely withered)) | 3 (Herbicidal rate of 40% or more and less than 70%) | 3 (Herbicidal rate of 40% or more and less than 70%) | 5 (Herbicidal rate of 90% or more (almost completely withered)) | 3 (Herbicidal rate of 40% or more and less than 70%) | 5 (Herbicidal rate of 90% or more (almost completely withered)) | 4 (Herbicidal rate of 70% or more and less than 90%) | 4 (Herbicidal rate of 70% or more and less than 90%) | 5 (Herbicidal rate of 90% or more (almost completely withered)) | 5 (Herbicidal rate of 90% or more (almost completely withered)) | 5 (Herbicidal rate of 90% or more (almost completely withered)) | – | – | – | – | – | –
2 | Cc1nn(C)c(=O)c(-c2c(-c3ccc(C(F)(F)F)cc3F)sc3c(Cl)cccc23)c1O [4-037] | 3 (Herbicidal rate of 40% or more and less than 70%) | 1 (Herbicidal rate of 5% or more and less than 20%) | 0 (Herbicidal rate of 5% or less (almost no effect)) | 0 (Herbicidal rate of 5% or less (almost no effect)) | 2 (Herbicidal rate of 20% or more and less than 40%) | 0 (Herbicidal rate of 5% or less (almost no effect)) | 0 (Herbicidal rate of 5% or less (almost no effect)) | 0 (Herbicidal rate of 5% or less (almost no effect)) | 0 (Herbicidal rate of 5% or less (almost no effect)) | 5 (Herbicidal rate of 90% or more (almost completely withered)) | 5 (Herbicidal rate of 90% or more (almost completely withered)) | 5 (Herbicidal rate of 90% or more (almost completely withered)) | 5 (Herbicidal rate of 90% or more (almost completely withered)) | 4 (Herbicidal rate of 70% or more and less than 90%) | 0 (Herbicidal rate of 5% or less (almost no effect)) | – | – | – | – | – | –
3 | Cc1ccccc1-c1sc2c(Cl)cccc2c1-c1c(O)c(C)nn(C)c1=O [4-060] | 3 (Herbicidal rate of 40% or more and less than 70%) | 1 (Herbicidal rate of 5% or more and less than 20%) | 3 (Herbicidal rate of 40% or more and less than 70%) | 0 (Herbicidal rate of 5% or less (almost no effect)) | 0 (Herbicidal rate of 5% or less (almost no effect)) | 0 (Herbicidal rate of 5% or less (almost no effect)) | 0 (Herbicidal rate of 5% or less (almost no effect)) | 0 (Herbicidal rate of 5% or less (almost no effect)) | 0 (Herbicidal rate of 5% or less (almost no effect)) | 4 (Herbicidal rate of 70% or more and less than 90%) | 0 (Herbicidal rate of 5% or less (almost no effect)) | 2 (Herbicidal rate of 20% or more and less than 40%) | 0 (Herbicidal rate of 5% or less (almost no effect)) | 4 (Herbicidal rate of 70% or more and less than 90%) | 0 (Herbicidal rate of 5% or less (almost no effect)) | – | – | – | – | – | –
4 | CCCCOc1cccc(-c2sc3c(Cl)cccc3c2-c2c(OC(=O)CCC)c(C)nn(C)c2=O)c1 [4-069] | 4 (Herbicidal rate of 70% or more and less than 90%) | 3 (Herbicidal rate of 40% or more and less than 70%) | 3 (Herbicidal rate of 40% or more and less than 70%) | 0 (Herbicidal rate of 5% or less (almost no effect)) | 0 (Herbicidal rate of 5% or less (almost no effect)) | 0 (Herbicidal rate of 5% or less (almost no effect)) | 0 (Herbicidal rate of 5% or less (almost no effect)) | 0 (Herbicidal rate of 5% or less (almost no effect)) | 0 (Herbicidal rate of 5% or less (almost no effect)) | 0 (Herbicidal rate of 5% or less (almost no effect)) | 0 (Herbicidal rate of 5% or less (almost no effect)) | 0 (Herbicidal rate of 5% or less (almost no effect)) | 0 (Herbicidal rate of 5% or less (almost no effect)) | 4 (Herbicidal rate of 70% or more and less than 90%) | 4 (Herbicidal rate of 70% or more and less than 90%) | – | – | – | – | – | –
5 | CCCC(=O)Oc1c(C)nn(C)c(=O)c1-c1c(-c2ccccc2OCc2ccccc2)sc2c(Cl)cccc12 [4-085] | 2 (Herbicidal rate of 20% or more and less than 40%) | 0 (Herbicidal rate of 5% or less (almost no effect)) | 2 (Herbicidal rate of 20% or more and less than 40%) | – | – | – | – | – | – | – | – | – | – | – | – | 0 (Herbicidal rate of 5% or less (almost no effect)) | 0 (Herbicidal rate of 5% or less (almost no effect)) | 3 (Herbicidal rate of 40% or more and less than 70%) | 0 (Herbicidal rate of 5% or less (almost no effect)) | 0 (Herbicidal rate of 5% or less (almost no effect)) | Herbicidal effect by foliage application, K: Italian ryegrass (Italian ryegrass): 0 (Herbicidal rate of 5% or less (almost no effect)); Herbicidal effect by foliage application, L: windgrass (windgrass): 0 (Herbicidal rate of 5% or less (almost no effect)); Herbicidal effect by foliage application, M: velvetleaf (velvetleaf): 0 (Herbicidal rate of 5% or less (almost no effect)); Herbicidal effect by foliage application, N: redroot pigweed (redroot pigweed): 0 (Herbicidal rate of 5% or less (almost no effect)); Herbicidal effect by foliage application, O: lambsquarters (lambsquarters): 0 (Herbicidal rate of 5% or less (almost no effect)); Herbicidal effect by foliage application, P: chickweed (chickweed): 4 (Herbicidal rate of 70% or more and less than 90%); Herbicidal effect by foliage application, R: persian speedwell (persian speedwell): 2 (Herbicidal rate of 20% or more and less than 40%)
6 | CCSc1ccccc1-c1sc2c(Cl)cccc2c1-c1c(O)c(C)nn(C)c1=O [4-090] | 5 (Herbicidal rate of 90% or more (almost completely withered)) | 3 (Herbicidal rate of 40% or more and less than 70%) | 2 (Herbicidal rate of 20% or more and less than 40%) | – | – | – | – | – | – | – | – | – | – | – | – | 4 (Herbicidal rate of 70% or more and less than 90%) | 3 (Herbicidal rate of 40% or more and less than 70%) | 3 (Herbicidal rate of 40% or more and less than 70%) | 0 (Herbicidal rate of 5% or less (almost no effect)) | 0 (Herbicidal rate of 5% or less (almost no effect)) | Herbicidal effect by foliage application, K: Italian ryegrass (Italian ryegrass): 0 (Herbicidal rate of 5% or less (almost no effect)); Herbicidal effect by foliage application, L: windgrass (windgrass): 0 (Herbicidal rate of 5% or less (almost no effect)); Herbicidal effect by foliage application, M: velvetleaf (velvetleaf): 0 (Herbicidal rate of 5% or less (almost no effect)); Herbicidal effect by foliage application, N: redroot pigweed (redroot pigweed): 3 (Herbicidal rate of 40% or more and less than 70%); Herbicidal effect by foliage application, O: lambsquarters (lambsquarters): 0 (Herbicidal rate of 5% or less (almost no effect)); Herbicidal effect by foliage application, P: chickweed (chickweed): 0 (Herbicidal rate of 5% or less (almost no effect)); Herbicidal effect by foliage application, R: persian speedwell (persian speedwell): 1 (Herbicidal rate of 5% or more and less than 20%)
